Legend:
[1] = Pharmacokinetics of PTH (1-34) in albumin crystal sugar truffle shell vs IV, plasma PTH (1-34) by ELISA; assay type: in vivo, Minipigs (Yorkshire); settings: 0.04 mg
Excerpt: The PTH (1-34) was processed to prepare albumin microparticles containing PTH according to the procedure mentioned under Example 4. The microparticle of albumin crystals containing PTH was then lyophilized after washing with cold isopropanol.
(§1) Pigs in the oral treatment group was either fasted overnight or fed prior to the test sample administration. […] The time of dosage of each animal was noted. […] An antibody, anti-PTH (1-34) was pre-coated onto a 96-well plate. […] The intensity of the yellow color is proportional to the PTH (1-34) amount bound on the plate.

[2] = Pharmacokinetics of PTH (1-34) in albumin crystal capsule (Vitamin E) vs IV, plasma PTH (1-34) by ELISA; assay type: in vivo, Minipigs (Yorkshire); settings: 0.04 mg
Excerpt: The PTH (1-34) was processed to prepare albumin microparticles containing PTH according to the procedure mentioned under Example 4. The microparticle of albumin crystals containing PTH was then lyophilized after washing with cold isopropanol. […] The capsule was then closed.
as §1

[3] = Pharmacokinetics of Octreotide in albumin crystal sugar truffle shell vs IV, plasma Octreotide by ELISA; assay type: in vivo, Wistar Rats; settings: 0.1 mg
Excerpt: Rats in the oral treatment group was fasted overnight. […] The time of dosage of each animal was noted. […] Biosystems protocol.

[4] = female, Yorkshire, minipig, plasma, iv
[5] = female, Yorkshire, minipig, plasma, iv, IV, read-out: AUC 0-inf_pred
[6] = female, Yorkshire, minipig, plasma, iv, IV, read-out: AUC 0-t
[7] = female, Yorkshire, minipig, plasma, iv, IV, read-out: AUC t-inf_obs
[8] = female, Yorkshire, minipig, plasma, iv, IV, read-out: AUC t-inf_pred
[9] = female, Yorkshire, minipig, plasma, iv, IV, read-out: MRT 0-inf_obs
[10] = female, Yorkshire, minipig, plasma, iv, IV, read-out: MRT 0-inf_pred
[11] = female, Yorkshire, minipig, plasma, iv, read-out: MRT 0-t
[12] = female, Yorkshire, minipig, plasma, iv, read-out: t½ (converted)

CC[C@H](C)[C@H](NC(=O)[C@H](CCC(=O)O)NC(=O)[C@H](CO)NC(=O)[C@@H](NC(=O)[C@@H](N)CO)C(C)C)C(=O)N[C@@H](CCC(N)=O)C(=O)N[C@@H](CC(C)C)C(=O)N[C@@H](CCSC)C(=O)N[C@@H](Cc1cnc[nH]1)C(=O)N[C@@H](CC(N)=O)C(=O)N[C@@H](CC(C)C)C(=O)NCC(=O)N[C@@H](CCCCN)C(=O)N[C@@H](Cc1cnc[nH]1)C(=O)N[C@@H](CC(C)C)C(=O)N[C@@H](CC(N)=O)C(=O)N[C@@H](CO)C(=O)N[C@@H](CCSC)C(=O)N[C@@H](CCC(=O)O)C(=O)N[C@@H](CCCN=C(N)N)C(=O)N[C@H](C(=O)N[C@@H](CCC(=O)O)C(=O)N[C@@H](Cc1c[nH]c2ccccc12)C(=O)N[C@@H](CC(C)C)C(=O)N[C@@H](CCCN=C(N)N)C(=O)N[C@@H](CCCCN)C(=O)N[C@@H](CCCCN)C(=O)N[C@@H](CC(C)C)C(=O)N[C@@H](CCC(N)=O)C(=O)N[C@@H](CC(=O)O)C(=O)N[C@H](C(=O)N[C@@H](Cc1cnc[nH]1)C(=O)N[C@@H](CC(N)=O)C(=O)N[C@@H](Cc1ccccc1)C(=O)O)C(C)C)C(C)C [PTH (1-34)]
Mean PTH (1-34) levels ([1]; 0 h, IV): 1429.01 ± 104.61 pg/mL | Mean PTH (1-34) levels ([1]; 0.08 h, IV): 2822.98 ± 196.91 pg/mL | Mean PTH (1-34) levels ([1]; 0.16 h, IV): 2898.29 ± 307.43 pg/mL | Mean PTH (1-34) levels ([1]; 0.5 h, IV): 1619.38 ± 229.76 pg/mL | Mean PTH (1-34) levels ([1]; 1 h, IV): 421.23 ± 126.34 pg/mL | Mean PTH (1-34) levels ([1]; 2 h, IV): 164.93 ± 39.5 pg/mL | Mean PTH (1-34) levels ([1]; 4 h, IV): 90.76 ± 7.55 pg/mL | Mean PTH (1-34) levels ([1]; 12 h, IV): 15.43 ± 1.57 pg/mL | AUMC 0-inf_obs ([1]; IV): 4903.835 pg/ml * h^2 | AUMC 0-inf_pred ([1]; IV): 4888.052 pg/ml * h^2 | AUMC 0-t ([1]; IV): 3822.072 pg/ml * h^2 | AUMC 0-t/0-inf_obs ([1]; IV): 0.779 | AUMC 0-t/0-inf_pred ([1]; IV): 0.782 | AUMC t-inf_obs ([1]; IV): 1081.763 pg/ml * h^2 | AUMC t-inf_pred ([1]; IV): 1065.980 pg/ml * h^2 | Cl_obs ([1]; IV): 0.000 (mg)/(pg/ml)/h | Cl_pred ([1]; IV): 0.000 (mg)/(pg/ml)/h | Clast_pred ([1]; IV): 0.015205 ng/mL | Lambda_z ([1]; IV): 0.233 h⁻¹ | Tlast ([1]; IV): 12.000 h | C0 [1, 4]: 1.43 ng/mL | Cmax [1, 4]: 2.9 ng/mL | Tmax [1, 4]: 9.6 min | AUC(0-inf) ([1]; female, Yorkshire, minipig, plasma, iv, IV, read-out: AUC 0-inf_obs): 2.72 ng·h/mL | AUC(0-inf) [1, 5]: 2.72 ng·h/mL | AUC(0-t) [1, 6]: 2.65 ng·h/mL | AUC(0-t) [1, 7]: 0.0664 ng·h/mL | AUC(0-t) [1, 8]: 0.0654 ng·h/mL | MRT inf [1, 9]: 1.8 h | MRT inf [1, 10]: 1.8 h | level at 12 h ([1]; female, Yorkshire, minipig, plasma, iv, read-out: Clast_obs): 0.0154 ng/mL | MRT last [1, 11]: 1.44 h | half-life [1, 12]: 2.98 h | AUMC 0-inf_obs ([2]; IV): 4903.835 pg/ml * h^2 | AUMC 0-inf_pred ([2]; IV): 4888.052 pg/ml * h^2 | AUMC 0-t/0-inf_obs ([2]; IV): 0.779 | AUMC 0-t/0-inf_pred ([2]; IV): 0.782 | AUMC t-inf_pred ([2]; IV): 1065.980 pg/ml * h^2 | AUMC_0-t ([2]; IV): 3822.072 pg/ml * h^2 | AUMC_t-inf obs ([2]; IV): 1081.763 pg/ml * h^2 | Cl_obs ([2]; IV): 0.000 (mg)/(pg/ml)/h | Cl_pred ([2]; IV): 0.000 (mg)/(pg/ml)/h | Clast_obs ([2]; IV): 0.01543 ng/mL | Clast_pred ([2]; IV): 0.015205 ng/mL | Lambda_z ([2]; IV): 0.233 h⁻¹ | Tlast ([2]; IV): 12.000 h | C0 [2, 4]: 1.43 ng/mL | Cmax [2, 4]: 2.9 ng/mL | Tmax [2, 4]: 9.6 min | AUC(0-inf) ([2]; female, Yorkshire, minipig, plasma, iv, IV, read-out: AUC 0-inf obs): 2.72 ng·h/mL | AUC(0-inf) [2, 5]: 2.72 ng·h/mL | AUC(0-t) [2, 6]: 2.65 ng·h/mL | AUC(0-t) [2, 7]: 0.0664 ng·h/mL | AUC(0-t) [2, 8]: 0.0654 ng·h/mL | MRT inf [2, 9]: 1.8 h | MRT inf [2, 10]: 1.8 h | MRT last [2, 11]: 1.44 h | half-life [2, 12]: 2.98 h | level at 0 h ([2]; female, Yorkshire, minipig, plasma, 0 h, IV, read-out: Mean PTH (1-34) levels): 1.43 ± 0.105 ng/mL | level at 0.08 h ([2]; female, Yorkshire, minipig, plasma, 0.08 h, IV, read-out: Mean PTH (1-34) levels): 2.82 ± 0.197 ng/mL | level at 0.16 h ([2]; female, Yorkshire, minipig, plasma, 0.16 h, IV, read-out: Mean PTH (1-34) levels): 2.9 ± 0.307 ng/mL | level at 0.5 h ([2]; female, Yorkshire, minipig, plasma, 0.5 h, IV, read-out: Mean PTH (1-34) levels): 1.62 ± 0.23 ng/mL | level at 1 h ([2]; female, Yorkshire, minipig, plasma, 1 h, IV, read-out: Mean PTH (1-34) levels): 0.421 ± 0.126 ng/mL | level at 2 h ([2]; female, Yorkshire, minipig, plasma, 2 h, IV, read-out: Mean PTH (1-34) levels): 0.165 ± 0.0395 ng/mL | level at 4 h ([2]; female, Yorkshire, minipig, plasma, 4 h, IV, read-out: Mean PTH (1-34) levels): 0.0908 ± 0.00755 ng/mL | level at 12 h ([2]; female, Yorkshire, minipig, plasma, 12 h, IV, read-out: Mean PTH (1-34) levels): 0.0154 ± 0.00157 ng/mL

C[C@@H](O)[C@@H]1NC(=O)[C@H](CCCCN)NC(=O)[C@@H](Cc2c[nH]c3ccccc23)NC(=O)[C@H](Cc2ccccc2)NC(=O)[C@@H](NC(=O)[C@H](N)Cc2ccccc2)CSSC[C@@H](C(=O)N[C@H](CO)[C@@H](C)O)NC1=O (relative stereo) [Octreotide, L-cysteinamide, D-phenylalanyl-L-cysteinyl-L-phenylalanyl-D-tryptophyl-L-lysyl-L-threonyl-N-[2-hydroxy-1-(hydroxy-methyl)propyl]-, cyclic (2→7)-disulfide; [R-(R*,R*)]]
Cl_pred ([3]; IV): 6.036E−06 (mg)/(ng/ml)/h | Vss_obs ([3]; IV): 0.0001111 (mg)/(ng/ml) | Vss_pred ([3]; IV): 0.0001107 (mg)/(ng/ml) | Vz_obs ([3]; IV): 0.0001106 (mg)/(ng/ml) | Vz_pred ([3]; IV): 0.0001118 (mg)/(ng/ml) | C0 ([3]; male, Wistar, rat, in vivo, iv): 3830 ng/mL | Cmax ([3]; male, Wistar, rat, in vivo, iv): 5390 ng/mL | Tmax ([3]; male, Wistar, rat, in vivo, iv): 2 h | AUC(0-inf) ([3]; male, Wistar, rat, in vivo, iv, IV, read-out: AUC 0-inf_obs): 105000 ng·h/mL | AUC(0-inf) ([3]; male, Wistar, rat, in vivo, iv, IV, read-out: AUC 0-inf_pred): 104000 ng·h/mL | AUC(0-t) ([3]; male, Wistar, rat, in vivo, iv, IV, read-out: AUC 0-t): 74200 ng·h/mL | AUC(0-t) ([3]; male, Wistar, rat, in vivo, iv, IV, read-out: AUC t-inf_obs): 30500 ng·h/mL | AUC(0-t) ([3]; male, Wistar, rat, in vivo, iv, IV, read-out: AUC t-inf_pred): 29400 ng·h/mL | MRT inf ([3]; male, Wistar, rat, in vivo, iv, IV, read-out: MRT 0-inf_obs): 18.6 h | MRT inf ([3]; male, Wistar, rat, in vivo, iv, IV, read-out: MRT 0-inf_pred): 18.3 h | MRT last ([3]; male, Wistar, rat, in vivo, iv, read-out: MRT 0-t): 8.78 h | half-life ([3]; male, Wistar, rat, in vivo, iv, read-out: t½ (converted)): 12.8 h | level at 0 h ([3]; male, Wistar, rat, in vivo, 0 h, IV): 3830 ± 1290 ng/mL | level at 0.25 h ([3]; male, Wistar, rat, in vivo, 0.25 h, IV): 4390 ± 559 ng/mL | level at 0.5 h ([3]; male, Wistar, rat, in vivo, 0.5 h, IV): 3170 ± 924 ng/mL | level at 1 h ([3]; male, Wistar, rat, in vivo, 1 h, IV): 4130 ± 1170 ng/mL | level at 2 h ([3]; male, Wistar, rat, in vivo, 2 h, IV): 5390 ± 356 ng/mL | level at 4 h ([3]; male, Wistar, rat, in vivo, 4 h, IV): 5150 ± 704 ng/mL | level at 8 h ([3]; male, Wistar, rat, in vivo, 8 h, IV): 3160 ± 1390 ng/mL

From patent US12533321B2, “Polypeptide formulations for oral delivery” (Bhami's Research Laboratory, Pvt. Ltd., priority 2022, dated 2026)
